The structures appear in SMILES notation.

The target in one data set is T1, NURR-1/RXRα (Homo sapiens, UniProt P19793).
T1 construct: expressed in transfected cells; host or cells: Cos-7 cells
Put plainly: Transactivation test, NURR-1-Gal4/RXRα, luciferase reporter in Cos-7 cells. It counts as cell-based. As to conditions: for Emax: COS-7, induction level relative to reference XCT0135908 at 2×10^−5 M (=100%), read-out: hNurr1_RXRaFL Emax (%); for EC50: Cos-7 cells, NURR-1-Gal4/RXRα, luciferase reporter, read-out: hNurr1_RXRaFL EC50. (In general: Reporter assays use an easily measured gene product as a stand-in for the process of interest.)

The target of another data set is T2, NURR-1/RXRγ (Homo sapiens, UniProt P48443).
T2 construct: expressed in transfected cells; host or cells: Cos-7 cells
T2 sequence (P48443 whole entry): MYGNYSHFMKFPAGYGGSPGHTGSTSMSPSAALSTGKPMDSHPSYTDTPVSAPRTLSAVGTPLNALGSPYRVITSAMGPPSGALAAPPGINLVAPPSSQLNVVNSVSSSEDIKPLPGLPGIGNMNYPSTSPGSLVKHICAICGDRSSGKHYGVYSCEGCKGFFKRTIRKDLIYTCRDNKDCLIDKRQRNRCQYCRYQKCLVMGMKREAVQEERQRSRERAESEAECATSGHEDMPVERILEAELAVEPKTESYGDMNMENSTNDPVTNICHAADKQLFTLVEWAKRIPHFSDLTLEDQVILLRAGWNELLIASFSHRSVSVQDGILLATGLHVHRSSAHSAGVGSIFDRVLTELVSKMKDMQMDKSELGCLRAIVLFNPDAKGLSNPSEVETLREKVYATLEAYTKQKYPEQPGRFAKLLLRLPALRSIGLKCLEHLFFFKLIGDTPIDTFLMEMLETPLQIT
T2 sequence (P43354 whole entry partner): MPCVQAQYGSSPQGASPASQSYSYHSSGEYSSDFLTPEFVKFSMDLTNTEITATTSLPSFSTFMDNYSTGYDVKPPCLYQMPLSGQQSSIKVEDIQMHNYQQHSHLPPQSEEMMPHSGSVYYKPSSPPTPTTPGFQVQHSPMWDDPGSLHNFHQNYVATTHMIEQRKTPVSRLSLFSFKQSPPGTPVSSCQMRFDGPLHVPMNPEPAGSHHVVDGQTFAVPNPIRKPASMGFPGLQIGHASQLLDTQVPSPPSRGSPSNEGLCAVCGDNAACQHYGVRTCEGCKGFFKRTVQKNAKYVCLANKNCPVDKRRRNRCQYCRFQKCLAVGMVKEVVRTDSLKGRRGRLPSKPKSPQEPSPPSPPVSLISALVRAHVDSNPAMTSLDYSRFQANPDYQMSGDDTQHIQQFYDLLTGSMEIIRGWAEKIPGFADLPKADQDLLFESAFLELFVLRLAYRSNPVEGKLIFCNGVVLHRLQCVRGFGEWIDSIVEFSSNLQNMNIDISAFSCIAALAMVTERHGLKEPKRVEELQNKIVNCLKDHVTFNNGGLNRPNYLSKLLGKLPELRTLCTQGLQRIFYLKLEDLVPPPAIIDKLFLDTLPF
T2 sequence (P04386 1-147 partner limits assumed): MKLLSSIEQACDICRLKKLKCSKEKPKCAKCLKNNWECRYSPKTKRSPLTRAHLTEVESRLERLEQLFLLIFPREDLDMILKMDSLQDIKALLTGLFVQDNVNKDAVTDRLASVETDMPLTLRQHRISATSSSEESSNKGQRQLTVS
Description: Transactivation test, NURR-1-Gal4/RXRγ, luciferase reporter in Cos-7 cells. Type of data set: cell-based. The note with it: for Emax: COS-7, induction level relative to reference XCT0135908 at 2×10^−5 M (=100%), read-out: hNurr1_RXRgFL Emax (%); for EC50: Cos-7 cells, NURR-1-Gal4/RXRγ, luciferase reporter, read-out: hNurr1_RXRgFL EC50.

Data set [1] deals with dopaminergic neurons of primary culture of rat embryo mesencephalon treated with MPP+. Description: Neuroprotection in primary culture of rat embryo mesencephalon treated with MPP+ (count of tyrosine hydroxylase expressing cells). Type of data set: cell-based. As to conditions: recombinant human BDNF 10 ng/mL = 100%, 2 days with MPP+. On the procedure: Another in vitro test was carried out with the compounds according to the invention, for the purpose of verifying that the molecules indeed have the expected neuroprotective effect in vitro.
The compounds were tested in a model of primary culture of rat embryo mesencephalon treated with 1-methyl-4-phenylpyridinium (MPP+), which is the active metabolite of 1-methyl-4-phenyl-1,2,3,6-tetrahydropyridine (MPTP). MPP+ enters into dopananergic neurons via the dopamine transporter and causes the death of these dopaminergic neurons. The following protocol was used.
Gestating female rats (15 days of gestation) were euthanized and the rat embryos were removed. The mesencephalons were removed. The tissue was then dissociated mechanically and by using trypsin. The cells collected after centrifugation were distributed into 96-well plates and left to stand for 5 days. The culture conditions made it possible to obtain a cell layer composed of neurons (dopaminergic and others) and astrocytes. On the 6th day, the cells were optionally treated with MPP+ in the presence or absence of test compound. After 2 days of incubation, the cells were fixed and various cell labellings were carried out; staining of the nuclei with the Hoechst fluorescent label and immunolabelling of tyrosine hydroxylase. The cells expressing tyrosine hydroxylase were counted using an image analyzer coupled to an optical microscope.
Recombinant human BDNF trophic factor (10 ng/mL) was used as reference. The activities of the compounds are given as percentages of activity relative to the BDNF reference, the activity of which is arbitrarily defined as being equal to 100%.

T1 sequence (P19793 whole entry): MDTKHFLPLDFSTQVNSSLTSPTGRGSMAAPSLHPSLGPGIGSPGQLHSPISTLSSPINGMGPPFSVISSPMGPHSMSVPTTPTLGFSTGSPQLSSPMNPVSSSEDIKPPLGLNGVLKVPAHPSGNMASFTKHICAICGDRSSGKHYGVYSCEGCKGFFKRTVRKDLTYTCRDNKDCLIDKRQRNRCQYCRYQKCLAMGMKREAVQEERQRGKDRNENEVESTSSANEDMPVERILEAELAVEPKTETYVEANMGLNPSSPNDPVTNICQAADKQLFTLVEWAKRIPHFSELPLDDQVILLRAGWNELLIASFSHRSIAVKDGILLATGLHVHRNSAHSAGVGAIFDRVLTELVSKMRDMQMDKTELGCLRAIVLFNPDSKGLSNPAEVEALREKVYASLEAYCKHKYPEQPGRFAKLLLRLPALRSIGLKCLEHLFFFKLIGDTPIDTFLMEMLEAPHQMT
T1 sequence (P43354 whole entry partner): as the sequence (P43354 whole entry partner) above
T1 sequence (P04386 1-147 partner limits assumed): as the sequence (P04386 1-147 partner limits assumed) above

As to `Cc1cc(-c2cccc(N3CC(C(=O)O)C3)c2)cc(C(F)(F)F)c1` [Example 12, 1-[3-[3-methyl-5-(trifluoromethyl)phenyl]phenyl]azetidine-carboxylic acid], the values for the Emax on NURR-1/RXRα and at NURR-1/RXRγ were 122% and 129%, respectively. Moreover, the EC50 on NURR-1/RXRα was determined as 46 nM; on NURR-1/RXRγ, 48 nM. Besides, the “percentage of activity relative to the BDNF reference” value is on record as 64% in data set [1] (compound 1 μM) and 74% in data set [1] (compound 10 μM).

Consider `Cc1cc(N2CC(C(=O)O)C2)cc(-n2cc(C)c3nc(C(F)(F)F)ccc32)c1` [Example 58, 1-[3-methyl-5-[3-methyl;-5-(trifluoromethyl)pyrrol[3,2,-b]pyridine-1-yl]phenyl]azetidine-3-carboxylic acid], for which the Emax on NURR-1/RXRα is 118%; on NURR-1/RXRγ it was 102%. Besides, the EC50 was 7 nM at NURR-1/RXRα and 13 nM on NURR-1/RXRγ. Further, the “percentage of activity relative to the BDNF reference” value in data set [1] (compound 1 μM) is reported as 80%; in data set [1] (compound 10 μM) it was 79%.

In the case of `CC1(C)CNc2c(cc(C(F)(F)F)cc2-c2cccc(N3CC(C(=O)O)C3)c2)O1` [Example 61, 1-[3-[2,2-dimethyl-7-(trifluoromethyl)-3,4 dihydro-1,4-benzoxazin-5-yl]phenyl]azetidine-3-carboxylic acid], the Emax stood at 91% on NURR-1/RXRα and 107% at NURR-1/RXRγ. Further, the values for the concentration for a half-maximal effect (EC50) on NURR-1/RXRα and at NURR-1/RXRγ were 8 nM and 15 nM, respectively. In addition, the “percentage of activity relative to the BDNF reference” value is on record as 85% in data set [1] (compound 1 μM) and 106% in data set [1] (compound 10 μM).

As for `Cc1cc(-c2cc(C(F)(F)F)cc3c2NCC(C)(C)O3)cc(N2CC(C(=O)O)C2)c1` [Example 64, 1-[3-[2,2,-dimethyl-7-(triflouormethyl)3,4-dihydro-1,4-benzoxazin-5-yl]-5-methylphenyl]azetidine-3-carboxylic acid], the Emax at NURR-1/RXRα turned out to be 99%; at NURR-1/RXRγ it was 109%. The concentration for a half-maximal effect (EC50) on NURR-1/RXRα and on NURR-1/RXRγ was 4 nM in each case. For the same molecule, the “percentage of activity relative to the BDNF reference” value in data set [1] (compound 1 μM) is given as 81%; in data set [1] (compound 10 μM) it was 92%.

`CC(Oc1ccc(C(F)(F)F)cc1-c1cccc(N2CC(C(=O)O)C2)c1)c1ccccc1` (stereo not drawn) [Example 98, 1-[3-[2-(1-phenylethoxy)-5-(trifluoromethyl)phenyl]phenyl]azetidine-3-carboxylic acid]: the Emax on NURR-1/RXRα came out at 51%; on NURR-1/RXRγ it was 42%. In addition, the figures for the EC50 on NURR-1/RXRα and at NURR-1/RXRγ were 5 nM and 7 nM, respectively. Besides, the “percentage of activity relative to the BDNF reference” value in data set [1] (compound 1 μM) worked out at 86%; in data set [1] (compound 10 μM), 132%.

With `O=C(O)C1CN(c2cccc(-c3cc(C(F)(F)F)ccc3OCC3CCCCC3)c2)C1` [Example 104, 1-[3-[2-(cyclohenxylemthoxy)-5-(trifluoromethyl)phenyl]phenyl]azetidine-3-carboxylic acid], on NURR-1/RXRα, the Emax was determined as 40% and the 50% effective concentration (EC50) stood at 50 nM. Further, at NURR-1/RXRγ, the Emax came to 42% and the EC50 was found to be 43 nM. Also, the “percentage of activity relative to the BDNF reference” value in data set [1] (compound 1 μM) was determined as 109%.

For `CCOc1ccc(C(F)(F)F)cc1-c1cccc(N2CC(C(=O)O)C2)c1` [Example 109, 1-[3-[2-ethoxy-5-(trifluoromethyl)phenyl]phenyl]azetidine-3-carboxylic acid], the Emax on NURR-1/RXRα came out at 86%; on NURR-1/RXRγ, 112%. In addition, the results for the EC50 on NURR-1/RXRα and on NURR-1/RXRγ were 39 nM and 67 nM, respectively. In addition, the “percentage of activity relative to the BDNF reference” value in data set [1] (compound 1 μM) was 145%; in data set [1] (compound 10 μM) it was 147%.

For the molecule `CCC1CN(c2cccc(N3CC(C(=O)O)C3)c2)c2ccc(C(F)(F)F)cc2O1` (stereo not drawn) [Example 114, 1-[3-[2-ethyl-7-(trifluoromethyl)-2,3-dihydro-1,4-benzoxazin-4-yl]phenyl]azetidine-3-carboxylic acid], the Emax on NURR-1/RXRα was found to be 139%; on NURR-1/RXRγ it was 150%. The figures for the half-maximal effective concentration (EC50) at NURR-1/RXRα and at NURR-1/RXRγ were 9 nM and 11 nM, respectively. The “percentage of activity relative to the BDNF reference” value in data set [1] (compound 1 μM) was determined as 101%; in data set [1] (compound 10 μM) it was 89%.

Turning to `CCCC1CN(c2cccc(N3CC(C(=O)O)C3)c2)c2ccc(C(F)(F)F)cc2O1` (stereo not drawn) [Example 117, 1-[3-[2-propyl-7-(tirfluormethyl)2,3-dihydro-1,4-benzoxazin-4-yl]phenyl]azetidine-3-carboxylic acid], the Emax on NURR-1/RXRα worked out at 103%; at NURR-1/RXRγ, 125%. Besides, the EC50 was found to be 9 nM on NURR-1/RXRα and 4 nM on NURR-1/RXRγ. For the same molecule, the “percentage of activity relative to the BDNF reference” value in data set [1] (compound 1 μM) is given as 75%; in data set [1] (compound 10 μM), 84%.

As for `CC(C)Cc1cn(-c2cccc(N3CC(C(=O)O)C3)c2)c2ccc(C(F)(F)F)cc12` [Example 125, 1-[3-[3-isobutyl-5-(trifluoromethyl)indol-1-yl]phenyl]azetidine-3-carboxylic acid], the maximal effect (Emax) on NURR-1/RXRα amounted to 152%; on NURR-1/RXRγ it was 162%. Also, the EC50 at NURR-1/RXRα was determined as 4 nM; at NURR-1/RXRγ, 2 nM. In addition, the “percentage of activity relative to the BDNF reference” value in data set [1] (compound 1 μM) was 86%; in data set [1] (compound 10 μM), 107%.

`CN(C)S(=O)(=O)c1cn(-c2cccc(N3CC(C(=O)O)C3)c2)c2ccc(C(F)(F)F)cc12` [Example 136, 1-[3-[3-(dimethylsulfamoyl)-5-(trifluoromethyl)indol-1-yl]phenyl]azetidine-3-carboxylic acid]: the Emax is 128% at NURR-1/RXRα and 121% at NURR-1/RXRγ. Moreover, the EC50 at NURR-1/RXRα amounted to 22 nM; at NURR-1/RXRγ, 55 nM. For the same molecule, the “percentage of activity relative to the BDNF reference” value was 49% in data set [1] (compound 1 μM) and 86% in data set [1] (compound 10 μM).

With `Cc1cn(-c2cccc(N3CC(C(=O)NCCCO)C3)c2)c2ccc(C(F)(F)F)cc12` [Example 154, N-(3-hydroxypropyl)-1-[3-[3-methyl-5-(trifluoromethyl)indol-1-yl]phenyl]azetidine-3-carboxamide], the Emax amounted to 111% on NURR-1/RXRα and 104% at NURR-1/RXRγ. Also, the values for the EC50 on NURR-1/RXRα and at NURR-1/RXRγ were under 1 nM and 3 nM, respectively. In addition, the “percentage of activity relative to the BDNF reference” value in data set [1] (compound 1 μM) was found to be 67%; in data set [1] (compound 10 μM), 105%.

As to `Cc1cn(-c2cccc(N3CC(C(=O)NCCc4c[nH]cn4)C3)c2)c2ccc(C(F)(F)F)cc12` [Example 155, N-[2-(1H-imidazol-4-yl)ethyl]-1-[3-[3-methyl-5-(trifluoromethyl)indol-1yl]phenyl]azetidine-3-carboxamide], the maximal effect (Emax) worked out at 123% on NURR-1/RXRα and 116% on NURR-1/RXRγ. The EC50 is 4 nM on NURR-1/RXRα and 5 nM on NURR-1/RXRγ. Besides, the “percentage of activity relative to the BDNF reference” value in data set [1] (compound 1 μM) was determined as 49%; in data set [1] (compound 10 μM), 94%.

As to `Cc1cn(-c2cccc(N3CC(C(=O)NCCOCCO)C3)c2)c2ccc(C(F)(F)F)cc12` [Example 158, N-[2-(2-hydroxethoxy)ethyl]-1-[3-[3-methyl-5-(trifluoromethyl)indol-1-yl]phenyl]azetidine-3-carboxamide], the Emax at NURR-1/RXRα amounted to 92%; at NURR-1/RXRγ, 125%. The EC50 on NURR-1/RXRα turned out to be 2 nM; at NURR-1/RXRγ it was 4 nM. The “percentage of activity relative to the BDNF reference” value in data set [1] (compound 1 μM) is reported as 54%; in data set [1] (compound 10 μM), 77%.

As for `CCC1(C)C=C(c2cccc(N3CC(C(=O)[O-])C3)c2)c2ccc(C(F)(F)F)cc2O1.[Na+]` (stereo not drawn) [Example 266, sodium 1-[3-[2-ethyl-2-methyl-7-(trifluoromethyl)chromen-4-yl]phenyl]azetidine-3-carboxylate], the melting point fell in the range of 201 to 214 °C. On NURR-1/RXRα, the Emax is 112% and the EC50 came out at 1 nM. Besides, at NURR-1/RXRγ, the Emax was 113% and the EC50 was about 1 nM.

As for `O=C([O-])C1CN(c2cccc(N3c4ccc(Cl)cc4C4CC43)c2)C1.[Na+]` (stereo not drawn) [Example 280, sodium 1-[3-(5-chloro-1a,6b-dihydro-1H-cyclopropa[b]indol-2-yl)phenyl]azetidine-3-carboxylate], the melting point is 62 to 69 °C. For the same molecule, on NURR-1/RXRα, the Emax was determined as 95% and the EC50 was 82 nM. On NURR-1/RXRγ, the maximal response (Emax) came out at 77% and the EC50 stood at 148 nM.

As a reminder, the Emax is the maximal effect, on the per cent scale that the assay sets. What is called EC50 is the concentration giving half of the maximal effect. As a reminder, the melting point is the temperature of the solid-liquid transition.

(Values after patent US20170066717A1, “NEW PHENYLAZETIDINECARBOXYLATE OR -CARBOXAMIDE COMPOUNDS” (INVENTIVA, priority 2014, published 2017).)
